Measurements taken from publication PMC7534351, “Imidazothiazole-based potent inhibitors of V600E-B-RAF kinase with promising anti-melanoma activity: biological and computational studies” (Journal of Enzyme Inhibition and Medicinal Chemistry, 2020).
Read-outs that look alike come from different tables or passages of the source.

Tests used:
V600E-B-RAF [1] = molecular target: T1, V600E-B-RAF (Homo sapiens, UniProt P15056, V600E); assay: Cell-free kinase profiling, V600E-B-RAF; format: biochemical; conditions: for One-dose (1 µM) results against V600E-B-RAF (% inhibition) / inhibition at 1 µM: mean of duplicate assays ± SEM; for inhibition at 1 µM: read-out: One-dose (1 µM) results against V600E-B-RAF (% inhibition)
Description: The reaction was initiated by the addition of the Mg-ATP mix. After incubation for 40 min at room temperature, the reaction was stopped by the addition of 5 µL of a 3% phosphoric acid solution. 10 µL of the reaction was then spotted onto a P30 filtermat and washed three times for 5 min in 75 mM phosphoric acid and once in methanol before drying and scintillation counting.
Target sequence in this assay (P15056 whole entry V600E): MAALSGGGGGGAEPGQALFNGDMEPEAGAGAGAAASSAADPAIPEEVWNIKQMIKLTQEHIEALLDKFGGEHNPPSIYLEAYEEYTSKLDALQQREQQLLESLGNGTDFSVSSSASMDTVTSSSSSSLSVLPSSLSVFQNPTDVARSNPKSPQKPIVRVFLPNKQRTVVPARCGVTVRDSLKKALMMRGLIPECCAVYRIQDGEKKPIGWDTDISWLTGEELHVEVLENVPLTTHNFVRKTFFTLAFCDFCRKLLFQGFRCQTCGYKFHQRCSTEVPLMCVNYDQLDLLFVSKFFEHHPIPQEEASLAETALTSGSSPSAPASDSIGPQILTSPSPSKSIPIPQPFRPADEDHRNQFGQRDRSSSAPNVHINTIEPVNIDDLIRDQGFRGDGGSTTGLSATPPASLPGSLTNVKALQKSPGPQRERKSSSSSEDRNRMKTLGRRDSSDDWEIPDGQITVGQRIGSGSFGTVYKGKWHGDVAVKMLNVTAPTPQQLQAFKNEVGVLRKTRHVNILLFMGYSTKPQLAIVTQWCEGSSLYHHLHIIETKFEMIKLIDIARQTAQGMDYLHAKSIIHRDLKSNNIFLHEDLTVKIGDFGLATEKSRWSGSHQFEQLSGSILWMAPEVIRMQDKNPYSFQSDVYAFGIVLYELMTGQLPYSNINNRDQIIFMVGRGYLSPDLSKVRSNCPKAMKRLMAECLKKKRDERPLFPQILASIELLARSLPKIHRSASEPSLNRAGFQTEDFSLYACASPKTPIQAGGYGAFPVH

RAF1 = RAF1 (Homo sapiens, UniProt P04049); assay: Cell-free kinase profiling, RAF1; format: biochemical; conditions: for One-dose (1 µM) results against RAF1 (% inhibition) / inhibition at 1 µM: mean of duplicate assays ± SEM; for inhibition at 1 µM: read-out: One-dose (1 µM) results against RAF1 (% inhibition)
Description: (§1) In a final volume of 25 µL, the tested kinase (5–10 mU) was incubated with 25 mM Tris pH 7.5, 0.02 mM EDTA, 0.66 mg/mL myelin basic protein, 10 mM magnesium acetate and [γ^33P-ATP] (specific activity approx. 500 cpm/pmol, concentration as required). The reaction was initiated by the addition of the Mg-ATP mix. After incubation for 40 min at room temperature, the reaction was stopped by the addition of 5 µL of a 3% phosphoric acid solution. 10 µL of the reaction was then spotted onto a P30 filtermat and washed three times for 5 min in 75 mM phosphoric acid and once in methanol before drying and scintillation counting.

JAK1 = JAK1 (Homo sapiens, UniProt P23458); assay: Kinase panel, JAK1; format: biochemical; conditions: mean ± SEM
Description: as §1

EGFR = EGFR (Homo sapiens, UniProt P00533); assay: Kinase panel, EGFR; format: biochemical; conditions: mean ± SEM
Description: as §1

TRKA = TRKA (Homo sapiens, UniProt P04629); assay: Kinase panel, TRKA; format: biochemical; conditions: mean ± SEM
Description: as §1

FLT3 = FLT3 (Homo sapiens, UniProt P36888); assay: Kinase panel, FLT3; format: biochemical
Description: as §1

PI3Kα = PI3Kα (Homo sapiens, UniProt P42336); assay: Kinase panel, PI3Kα; format: biochemical; conditions: mean ± SEM
Description: as §1

Aurora-A = Aurora-A (Homo sapiens, UniProt O14965); assay: Kinase panel, Aurora-A; format: biochemical; conditions: mean ± SEM
Description: as §1

JAK2 = JAK2 (Homo sapiens, UniProt O60674); assay: Kinase panel, JAK2; format: biochemical; conditions: mean ± SEM
Description: as §1

[2] = test system: CCD1106K normal skin epithelial cell line; assay: MTT assay, CCD1106K normal skin cells; format: cell-based; conditions: 48 h, mean of triplicate assays ± SEM, read-out: Antiproliferative activity (IC50 value, µM) CCD1106K normal skin cells
Description: (§2) The melanoma and normal skin cell lines were maintained in DMEM including 10% foetal bovine serum (FBS) and 1% penicillin/streptomycin in a humid atmosphere containing 5% carbon dioxide at 37 °C. […] The cells were incubated for 48 h following treatment with the test compounds. The cellular viability was assessed by the conventional 3–(4,5-dimethylthiazol-2-yl)-2,5-diphenyltetrazolium bromide (MTT) reduction assay. MTT assays were carried out with CellTiter 96® (Promega) according to the manufacturer’s instructions. The absorbance at 590 nm was recorded using EnVision 2103 (Perkin Elmer; Boston, MA, USA). The IC50 values were calculated using GraphPad Prism 4.0 software. Triplicate testing was performed.

A-RAF = A-RAF (Homo sapiens, UniProt P10398); assay: Kinase panel, A-RAF; format: biochemical; conditions: mean ± SEM
Description: as §1

VRK1 = VRK1 (Homo sapiens, UniProt Q99986); assay: Kinase panel, VRK1; format: biochemical; conditions: mean ± SEM
Description: as §1

KDR = KDR (Homo sapiens, UniProt P35968); assay: Kinase panel, KDR; format: biochemical; conditions: mean ± SEM
Description: as §1

ErbB4 = ErbB4 (Homo sapiens, UniProt Q15303); assay: Kinase panel, ErbB4; format: biochemical; conditions: mean ± SEM
Description: as §1

V600E-B-RAF [3] = molecular target: T1, V600E-B-RAF; assay: In-cell kinase assay (MEK1 phosphorylation ELISA in MEF-V600E-B-RAF:ER cells); format: cell-based; conditions: MEF cell line, phospho-MEK1 readout, 90 min compound incubation; read-out: in-cell V600E-B-RAF kinase inhibition IC50
Description: MEF-V600E-B-RAF:ER cells were plated in Dulbecco’s modified eagle medium (DMEM) supplemented with 10% FCS in multiwell cell culture plates. Compound incubation (90 min at 37 °C) was done in serum-free medium. […] For stimulation, cells were treated with 1 µM hydroxytamoxifen for 1 h at room temperature. After cell lysis, quantification of MEK1 phosphorylation was assessed in 96-well plates via sandwich-ELISA using a MEK1 specific capture antibody and a phospho-MEK1-Ser218/222 specific detection antibody.

cKIT = cKIT (Homo sapiens, UniProt P10721); assay: Kinase panel, cKIT; format: biochemical; conditions: mean ± SEM
Description: as §1

A375 melanoma cell line = assay: MTT assay, A375; format: cell-based; conditions: Homo sapiens, A-375, 48 h, mean of triplicate assays ± SEM, read-out: Antiproliferative activity (IC50 value, µM) A375
Description: as §2

LCK = LCK (Homo sapiens, UniProt P06239); assay: Kinase panel, LCK; format: biochemical; conditions: mean ± SEM
Description: as §1

four melanoma cell lines = assay: MTT assay, four melanoma cell lines (range); format: cell-based; conditions: range over A375, MDA-MB-435, SK-MEL-28, UACC-62; read-out: IC50 against four melanoma cell lines (range)
Description: as §2

DMPK = DMPK (Homo sapiens, UniProt Q09013); assay: Kinase panel, DMPK; format: biochemical; conditions: mean ± SEM
Description: as §1

mTOR = mTOR (Homo sapiens, UniProt P42345); assay: Kinase panel, mTOR; format: biochemical; conditions: mean ± SEM
Description: as §1

ROS = ROS (Homo sapiens, UniProt P08922); assay: Kinase panel, ROS; format: biochemical; conditions: mean ± SEM
Description: as §1

[4] = test system: UACC-62 melanoma cell line; assay: MTT assay, UACC-62; format: cell-based; conditions: Homo sapiens, 48 h, mean of triplicate assays ± SEM, read-out: Antiproliferative activity (IC50 value, µM) UACC-62
Description: as §2

PDGFRβ = PDGFRβ (Homo sapiens, UniProt P09619); assay: Kinase panel, PDGFRβ; format: biochemical; conditions: mean ± SEM
Description: as §1

ALK = ALK (Homo sapiens, UniProt Q9UM73); assay: Kinase panel, ALK; format: biochemical; conditions: mean ± SEM
Description: as §1

JNK1(α1) = JNK1(α1) (Homo sapiens, UniProt P45983); assay: Kinase panel, JNK1(α1); format: biochemical; conditions: mean ± SEM
Description: as §1

ErbB2 = ErbB2 (Homo sapiens, UniProt P04626); assay: Kinase panel, ErbB2; format: biochemical; conditions: mean ± SEM
Description: as §1

30-kinase panel = 30-kinase panel as a whole; format: biochemical; conditions: 1 µM; all panel kinases apart from V600E-B-RAF and FLT3
Description: as §1

PI3K-C2α = PI3K-C2α (Homo sapiens, UniProt O00443); assay: Kinase panel, PI3K-C2α; format: biochemical; conditions: mean ± SEM
Description: as §1

MEK1 = MEK1 (Homo sapiens, UniProt Q02750); assay: Kinase panel, MEK1; format: biochemical; conditions: mean ± SEM
Description: as §1

[5] = test system: SK-MEL-28 melanoma cell line; assay: MTT assay, SK-MEL-28; format: cell-based; conditions: Homo sapiens, 48 h, mean of triplicate assays ± SEM, read-out: Antiproliferative activity (IC50 value, µM) SK-MEL-28
Description: as §2

[6] = test system: MDA-MB-435 melanoma cell line; assay: MTT assay, MDA-MB-435; format: cell-based; conditions: Homo sapiens, 48 h, mean of triplicate assays ± SEM, read-out: Antiproliferative activity (IC50 value, µM) MDA-MB-435
Description: as §2

ABL = ABL (Homo sapiens, UniProt P00519); assay: Kinase panel, ABL; format: biochemical; conditions: mean ± SEM
Description: as §1

B-RAF^wt = B-RAF^wt (Homo sapiens, UniProt P15056); assay: Kinase panel, B-RAF wt; format: biochemical; conditions: mean ± SEM
Description: as §1

MEK2 = MEK2 (Homo sapiens, UniProt P36507); assay: Kinase panel, MEK2; format: biochemical; conditions: mean ± SEM
Description: as §1

BTK = BTK (Homo sapiens, UniProt Q06187); assay: Kinase panel, BTK; format: biochemical; conditions: mean ± SEM
Description: as §1

FMS = FMS (Homo sapiens, UniProt P07333); assay: Kinase panel, FMS; format: biochemical; conditions: mean ± SEM
Description: as §1

[7] = 10-dose mode, read-out: IC50 value (nM) against V600E-B-RAF
[8] = from the IC50 values of Table 1, used for QSAR
[9] = 10-dose mode, read-out: IC50 value (nM) against RAF1

RAF1, sequence (P04049 whole entry): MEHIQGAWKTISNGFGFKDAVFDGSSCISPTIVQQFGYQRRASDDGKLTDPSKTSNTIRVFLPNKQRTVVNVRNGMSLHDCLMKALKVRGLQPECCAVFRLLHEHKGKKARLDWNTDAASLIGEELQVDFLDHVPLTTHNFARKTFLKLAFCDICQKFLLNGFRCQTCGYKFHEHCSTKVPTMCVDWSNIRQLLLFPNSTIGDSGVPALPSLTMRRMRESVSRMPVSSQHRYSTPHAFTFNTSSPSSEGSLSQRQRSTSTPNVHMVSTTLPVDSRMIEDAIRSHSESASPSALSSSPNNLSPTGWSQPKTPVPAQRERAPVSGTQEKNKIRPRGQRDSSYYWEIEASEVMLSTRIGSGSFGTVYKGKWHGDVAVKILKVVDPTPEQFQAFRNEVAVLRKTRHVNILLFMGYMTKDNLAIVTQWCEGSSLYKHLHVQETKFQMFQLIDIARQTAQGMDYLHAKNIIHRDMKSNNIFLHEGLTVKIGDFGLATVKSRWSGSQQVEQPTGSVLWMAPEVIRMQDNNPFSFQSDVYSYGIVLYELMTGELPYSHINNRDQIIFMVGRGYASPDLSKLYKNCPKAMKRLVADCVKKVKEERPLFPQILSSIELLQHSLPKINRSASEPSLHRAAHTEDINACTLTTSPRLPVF
FLT3, sequence (P36888 27-993, species assumed): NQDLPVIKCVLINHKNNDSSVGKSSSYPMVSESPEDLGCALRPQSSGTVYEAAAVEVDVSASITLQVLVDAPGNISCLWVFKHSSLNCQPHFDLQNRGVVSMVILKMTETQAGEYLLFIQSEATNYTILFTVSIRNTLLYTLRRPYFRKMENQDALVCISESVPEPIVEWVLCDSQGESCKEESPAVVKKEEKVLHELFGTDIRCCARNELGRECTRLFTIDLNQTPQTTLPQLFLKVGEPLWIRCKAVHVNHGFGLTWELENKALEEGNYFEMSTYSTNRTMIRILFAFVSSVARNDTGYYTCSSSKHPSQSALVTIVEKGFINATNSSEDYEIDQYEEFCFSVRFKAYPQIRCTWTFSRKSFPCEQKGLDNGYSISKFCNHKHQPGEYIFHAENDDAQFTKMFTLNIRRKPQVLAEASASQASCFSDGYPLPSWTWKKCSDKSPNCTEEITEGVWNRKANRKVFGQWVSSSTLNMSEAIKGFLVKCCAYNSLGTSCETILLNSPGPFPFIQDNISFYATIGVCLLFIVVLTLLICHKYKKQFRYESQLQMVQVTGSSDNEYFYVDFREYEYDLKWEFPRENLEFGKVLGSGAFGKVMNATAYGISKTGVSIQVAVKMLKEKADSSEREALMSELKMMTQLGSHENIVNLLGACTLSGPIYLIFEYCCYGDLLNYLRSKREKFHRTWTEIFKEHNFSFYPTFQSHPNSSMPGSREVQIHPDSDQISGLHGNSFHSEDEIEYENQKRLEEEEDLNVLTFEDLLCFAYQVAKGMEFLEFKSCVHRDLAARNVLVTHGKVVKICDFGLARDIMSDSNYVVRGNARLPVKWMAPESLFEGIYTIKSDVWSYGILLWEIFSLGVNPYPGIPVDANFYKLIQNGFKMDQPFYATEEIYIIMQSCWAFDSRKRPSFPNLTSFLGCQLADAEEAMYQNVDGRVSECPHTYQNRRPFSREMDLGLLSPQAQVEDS
ALK, sequence (Q9UM73 19-1620): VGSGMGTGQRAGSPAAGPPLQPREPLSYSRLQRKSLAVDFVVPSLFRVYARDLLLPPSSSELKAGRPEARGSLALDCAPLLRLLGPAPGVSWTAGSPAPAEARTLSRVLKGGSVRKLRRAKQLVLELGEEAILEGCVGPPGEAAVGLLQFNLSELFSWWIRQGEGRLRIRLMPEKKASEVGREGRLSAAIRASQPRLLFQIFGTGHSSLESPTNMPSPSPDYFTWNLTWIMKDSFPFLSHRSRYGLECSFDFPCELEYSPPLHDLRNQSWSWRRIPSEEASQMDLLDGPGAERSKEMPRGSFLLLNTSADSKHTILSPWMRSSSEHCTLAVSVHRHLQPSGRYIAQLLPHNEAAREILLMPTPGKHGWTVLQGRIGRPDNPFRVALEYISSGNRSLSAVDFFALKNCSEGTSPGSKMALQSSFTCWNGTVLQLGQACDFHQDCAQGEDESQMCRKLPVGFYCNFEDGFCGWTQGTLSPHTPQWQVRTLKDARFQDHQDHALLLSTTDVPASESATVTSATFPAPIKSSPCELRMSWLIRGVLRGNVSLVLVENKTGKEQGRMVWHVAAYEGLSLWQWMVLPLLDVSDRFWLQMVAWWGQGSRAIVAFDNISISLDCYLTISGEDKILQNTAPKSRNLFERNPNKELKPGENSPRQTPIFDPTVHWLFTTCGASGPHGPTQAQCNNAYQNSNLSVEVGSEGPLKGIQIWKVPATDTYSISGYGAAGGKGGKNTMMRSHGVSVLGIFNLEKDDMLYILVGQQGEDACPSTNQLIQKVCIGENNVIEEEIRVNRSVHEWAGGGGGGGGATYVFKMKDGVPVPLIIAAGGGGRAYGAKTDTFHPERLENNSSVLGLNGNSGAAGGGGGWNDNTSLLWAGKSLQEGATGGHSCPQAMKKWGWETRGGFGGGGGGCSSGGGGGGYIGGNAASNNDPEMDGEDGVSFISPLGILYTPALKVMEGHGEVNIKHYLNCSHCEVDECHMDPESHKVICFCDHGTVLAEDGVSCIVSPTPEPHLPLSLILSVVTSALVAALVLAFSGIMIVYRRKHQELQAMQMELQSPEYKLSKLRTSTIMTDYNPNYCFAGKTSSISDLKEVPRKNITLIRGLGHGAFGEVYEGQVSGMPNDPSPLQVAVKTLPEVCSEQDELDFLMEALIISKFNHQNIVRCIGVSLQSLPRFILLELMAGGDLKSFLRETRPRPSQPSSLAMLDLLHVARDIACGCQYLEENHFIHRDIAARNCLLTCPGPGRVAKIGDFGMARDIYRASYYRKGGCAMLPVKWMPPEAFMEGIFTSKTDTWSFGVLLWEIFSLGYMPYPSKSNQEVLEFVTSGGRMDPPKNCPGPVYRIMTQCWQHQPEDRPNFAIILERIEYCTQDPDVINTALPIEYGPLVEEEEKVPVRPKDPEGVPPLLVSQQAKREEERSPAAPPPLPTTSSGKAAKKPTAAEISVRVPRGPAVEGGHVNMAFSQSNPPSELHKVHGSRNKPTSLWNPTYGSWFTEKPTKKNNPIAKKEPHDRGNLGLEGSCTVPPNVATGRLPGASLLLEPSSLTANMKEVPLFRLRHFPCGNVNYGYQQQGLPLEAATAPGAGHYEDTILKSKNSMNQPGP
A-RAF, sequence (P10398 whole entry): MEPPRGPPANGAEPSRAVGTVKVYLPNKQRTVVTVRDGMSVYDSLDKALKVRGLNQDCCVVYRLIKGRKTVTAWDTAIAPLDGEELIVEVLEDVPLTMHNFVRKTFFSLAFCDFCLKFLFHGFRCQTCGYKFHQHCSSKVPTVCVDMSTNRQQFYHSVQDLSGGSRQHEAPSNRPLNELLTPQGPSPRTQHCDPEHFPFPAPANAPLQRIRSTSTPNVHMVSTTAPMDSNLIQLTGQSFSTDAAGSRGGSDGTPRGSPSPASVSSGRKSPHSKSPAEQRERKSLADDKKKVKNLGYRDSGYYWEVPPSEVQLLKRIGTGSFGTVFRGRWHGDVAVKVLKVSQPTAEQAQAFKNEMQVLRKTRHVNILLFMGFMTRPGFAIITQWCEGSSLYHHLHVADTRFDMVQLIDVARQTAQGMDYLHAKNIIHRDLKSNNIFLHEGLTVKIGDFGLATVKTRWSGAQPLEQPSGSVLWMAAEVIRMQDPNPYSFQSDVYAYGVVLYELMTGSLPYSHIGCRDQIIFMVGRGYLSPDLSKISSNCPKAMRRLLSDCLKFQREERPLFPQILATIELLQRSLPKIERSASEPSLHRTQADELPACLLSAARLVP
VRK1, sequence (Q99986 whole entry): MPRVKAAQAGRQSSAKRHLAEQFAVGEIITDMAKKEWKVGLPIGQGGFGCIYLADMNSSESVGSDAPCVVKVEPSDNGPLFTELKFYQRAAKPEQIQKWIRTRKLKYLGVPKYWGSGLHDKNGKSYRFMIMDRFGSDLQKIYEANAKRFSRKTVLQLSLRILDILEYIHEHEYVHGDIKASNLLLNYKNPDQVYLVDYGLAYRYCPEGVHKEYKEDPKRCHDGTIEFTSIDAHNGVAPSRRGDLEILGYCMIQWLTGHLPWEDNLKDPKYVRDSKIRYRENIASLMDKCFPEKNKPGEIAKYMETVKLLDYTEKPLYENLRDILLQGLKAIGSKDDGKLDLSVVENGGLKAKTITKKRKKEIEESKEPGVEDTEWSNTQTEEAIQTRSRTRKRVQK
B-RAF^wt, sequence (P15056 whole entry): as the sequence (P15056 whole entry V600E) above, with E600V counted along it

Question: Which “One-dose (1 µM) results against V600E-B-RAF (% inhibition)” value (V600E-B-RAF [1]) does the source give for `COc1cccc(-c2nc3sccn3c2-c2ccnc(NCCNC(=O)c3ccccc3)n2)c1` [Compound 1u] here?
Answer: The value was 95.03% ± 0.66%.

Question: And the IC50 (V600E-B-RAF [1]; [7])?
Answer: The IC50 was 45.1 nM.

Question: And the “pIC50 (V600E- B-RAF)” value (V600E-B-RAF [1]; [8])?
Answer: The value was 7.346.

Question: What about the “One-dose (1 µM) results against RAF1 (% inhibition)” value (RAF1) of the same molecule?
Answer: Its value is 74.00% ± 0.64%.

Question: `COc1cccc(-c2nc3sccn3c2-c2ccnc(NCCNC(=O)c3ccccc3O)n2)c1` [Compound 1v] was tested. Which “One-dose (1 µM) results against V600E-B-RAF (% inhibition)” value (V600E-B-RAF [1]) did it give?
Answer: Its value is 90.82% ± 0.25%.

Question: And the IC50 (V600E-B-RAF [1]; [7])?
Answer: Its IC50 is 100 nM.

Question: What about the “pIC50 (V600E- B-RAF)” value (V600E-B-RAF [1]; [8]) of the same molecule?
Answer: Its value is 7.000.

Question: And the “One-dose (1 µM) results against RAF1 (% inhibition)” value (RAF1)?
Answer: Its value is 59.25% ± 2.53%.

Question: What does the source list for `O=C(NCCNc1nccc(-c2c(-c3cccc(O)c3)nc3sccn23)n1)c1ccccc1` [Compound 1zb]?
Answer: inhibition at 1 µM (JAK1): -0.26%; inhibition at 1 µM (EGFR): 19.9%; inhibition at 1 µM (TRKA): 46.7%; inhibition at 1 µM (FLT3; 1 µM, mean ± SEM): 73.1%; IC50 (FLT3; read-out: IC50 (nM) against FLT3): 838 nM; inhibition at 1 µM (PI3Kα): 5.85%; inhibition at 1 µM (Aurora-A): 49.8%; inhibition at 1 µM (JAK2): 3.76%; IC50 [2]: 9.26 ± 0.38 µM; inhibition at 1 µM (A-RAF): 9.14%; inhibition at 1 µM (VRK1): 3.93%; inhibition at 1 µM (KDR): 18.8%; inhibition at 1 µM (ErbB4): 13.7%; IC50 (V600E-B-RAF [3]): 190 nM; inhibition at 1 µM (cKIT): 9.63%; IC50 (A375 melanoma cell line): 0.46 ± 0.03 µM; inhibition at 1 µM (LCK): 12.4%; IC50 (four melanoma cell lines): 180 to 590 nM; inhibition at 1 µM (DMPK): 0.84%; inhibition at 1 µM (mTOR): 7.83%; inhibition at 1 µM (ROS): 2.02%; IC50 [4]: 0.18 ± 0.02 µM; inhibition at 1 µM (PDGFRβ): 12.5%; inhibition at 1 µM (ALK): 41.2%; inhibition at 1 µM (JNK1(α1)): 0.76%; inhibition at 1 µM (ErbB2): 2.17%; inhibitory effect against all the other kinases of the panel (30-kinase panel): less than 50%; inhibition at 1 µM (PI3K-C2α): 50%; inhibition at 1 µM (MEK1): 1.5%; IC50 [5]: 0.38 ± 0.05 µM; IC50 [6]: 0.59 ± 0.06 µM; inhibition at 1 µM (ABL): 7.57%; inhibition at 1 µM (B-RAF^wt): 23.4%; inhibition at 1 µM (MEK2): 26.6%; inhibition at 1 µM (BTK): 17%; inhibition at 1 µM (V600E-B-RAF [1]): 99.5%; IC50 (V600E-B-RAF [1]; [7]): 0.978 nM; inhibition at 1 µM (RAF1): 99.4%; IC50 (RAF1; from the IC50 values of Table 1, used for QSAR, read-out: pIC50 (RAF1) (converted)): 8.2 nM; inhibition at 1 µM (FMS): 12.2%

Question: Which results are given for `O=C(NCCNc1nccc(-c2c(-c3cccc(O)c3)nc3sccn23)n1)c1ccccc1O` [Compound 1zc]?
Answer: One-dose (1 µM) results against V600E-B-RAF (% inhibition) (V600E-B-RAF [1]): 101.07% ± 1.53%; IC50 (V600E-B-RAF [1]; [7]): 1.9 nM; pIC50 (V600E- B-RAF) (V600E-B-RAF [1]; [8]): 8.721; One-dose (1 µM) results against RAF1 (% inhibition) (RAF1): 99.32% ± 0.23%; IC50 (RAF1; [9]): 10.5 nM; pIC50 (RAF1) (RAF1; [8]): 7.979

Question: What does the source list for `O=C(NCCNc1nccc(-c2c(-c3cccc(O)c3)nc3sccn23)n1)c1ccc(N2CCOCC2)c(C(F)(F)F)c1` [Compound 1zg]?
Answer: inhibition at 1 µM (V600E-B-RAF [1]): 99%; IC50 (V600E-B-RAF [1]; from the IC50 values of Table 1, used for QSAR, read-out: pIC50 (V600E- B-RAF) (converted)): 15.8 nM; inhibition at 1 µM (RAF1): 90.8%; IC50 (RAF1; [9]): 158 nM

Question: What does the source list for `CNC(=O)c1cc(Oc2ccc(NC(=O)Nc3ccc(Cl)c(C(F)(F)F)c3)cc2)ccn1` [Sorafenib, sorafenib, reference compound]?
Answer: IC50 [2]: 11.6 ± 0.46 µM; IC50 (A375 melanoma cell line): 5.45 ± 0.53 µM; IC50 (four melanoma cell lines): 1950 to 5450 nM; IC50 [4]: 1.95 ± 0.08 µM; IC50 [6]: 3.16 ± 0.2 µM
